In patent US20230201161A1, “Combination comprising HDAC inhibitor, LAG-3 inhibitor and a PD-1 inhibitor or PD-L1 inhibitor for cancer treatment” (4SC AG, priority 2018, published 2023):

Experiments:
[1] = test system: different types of blood cancer; conditions: cited from earlier work
[2] = test system: Colon 38 (C38, a C57BL/6J mouse colon adenocarcinoma cell line) tumor; assay: C38 (Colon 38) subcutaneous tumor model, tumor volume; assay type: in vivo; conditions: female C57BL/6J mice, 20 per group; 4SC-202 20 mg/kg PO twice daily x24; antibodies 10 mg/kg IP (anti-PD1 TWx2, anti-LAG-3 Q3Dx4); data to day 27
Protocol: • 4SC-202 (tosylate salt). • Anti-PD1 antibody (clone: RMP1-14, catalog: BE0146, isotype: Rat IgG2a, Bioxcell), • Anti-LAG-3 antibody (clone: C9B7W, catalog: BE0174, isotype: Rat lgG1, Bioxcell),
• 4SC-202 was suspended in 2% aqueous methocel solution at 2 mg/ml (active compound). • Anti-PD-1 and anti-LAG3 antibody was diluted with PBS in order to reach final concentration of 1 mg/ml.
• 4SC-202 was administered at 20 mg/kg twice daily, based on 4SC-202 free base. • The anti-PD-1 and anti-LAG3 antibody was injected at 10 mg/kg per injection,
• 4SC-202 was administered by oral gavage (per os, PO) via a gavage tube. • The antibodies were injected intraperitoneally into the peritoneal cavity of mice. • In all cases, the administration volume was 10 mUkg adjusted to the most recent individual body weight of mice.
Colon 38 (C38, a C57BL/6J mouse colon adenocarcinoma cell line) tumor fragments.
The C38 fragments are stored frozen in DMSO/SVF/RPMI 1640 medium (10/10/80) in liquid nitrogen until use. In the study part 1, C38 frozen fragments were thawed at 37° C. for 5 min, rinsed twice in RPMI 1640 medium before subcutaneous (SC) implantation in mice.
Thirty-five (35) female C57BL/6J mice were subcutaneously implanted into the right flank with C38 tumor fragments. […]

[3] = 24 heavily pre-treated patients with different types of blood cancer

With `Cn1cc(-c2ccc(S(=O)(=O)n3ccc(/C=C/C(=O)Nc4ccccc4N)c3)cc2)cn1` [Compound 4SC-202, (E)-N-(2-aminophenyl)-3-(1-((4-(1-methyl-1H-pyrazol-4-yl)phenyl)sulfonyl)-1H-pyrrol-3-yl)acrylamide] as the compound, how does the disease control [1, 3] read?
The disease control was 83 % of the patients.

What about the long-term stabilization [1, 3] of the same compound?
The long-term stabilization was 50 % of patients.

And the tolerability [1, 3]?
Its tolerability is “well tolerated with few and/or manageable adverse events”.

What about the “complete remission, duration” value ([1]; one complete remission among 24 heavily pre-treated patients) of the same compound?
The value was 28 months.

What about the “partial responder, duration” value ([1]; one partial responder among 24 heavily pre-treated patients) of the same compound?
Its value is 8 months.

What about the “tumor growth reduction / anti-tumoral efficacy (in words)” value [2] of the same compound?
Its value is “reduced tumor growth to a certain extent”.
